Results reported in publication PMC6121902, “Conjugation with Dihydrolipoic Acid Imparts Caffeic Acid Ester Potent Inhibitory Effect on Dopa Oxidase Activity of Human Tyrosinase” (International Journal of Molecular Sciences, 2018).
Values joined by “and” are separate entries in the source; they are usually repeats but may differ in a detail not shown here. Equal values may be shown once. Read-outs that look alike come from different tables or passages of the source.

Columns and labels:
mushroom tyrosinase [1] = system: mushroom tyrosinase; design: method as in PMID 31105178; conditions: cited from earlier work
human tyrosinase = system: T1, human tyrosinase; assay: TH activity of human tyrosinase; assay type: biochemical; conditions: compared with DO activity
T1 construct: endogenous in cells

[2] = biological target: T2, tyrosinase from HBL human melanoma cells (Homo sapiens, UniProt P14679); assay: DO activity of human tyrosinase in HBL cell extracts (MBTH assay, 490 nm); assay type: biochemical; conditions: HBL cell extracts
T2 construct: endogenous in cells; host or cells: HBL human melanoma cells (detergent-solubilized cell extract)
T2 sequence (P14679 19-529): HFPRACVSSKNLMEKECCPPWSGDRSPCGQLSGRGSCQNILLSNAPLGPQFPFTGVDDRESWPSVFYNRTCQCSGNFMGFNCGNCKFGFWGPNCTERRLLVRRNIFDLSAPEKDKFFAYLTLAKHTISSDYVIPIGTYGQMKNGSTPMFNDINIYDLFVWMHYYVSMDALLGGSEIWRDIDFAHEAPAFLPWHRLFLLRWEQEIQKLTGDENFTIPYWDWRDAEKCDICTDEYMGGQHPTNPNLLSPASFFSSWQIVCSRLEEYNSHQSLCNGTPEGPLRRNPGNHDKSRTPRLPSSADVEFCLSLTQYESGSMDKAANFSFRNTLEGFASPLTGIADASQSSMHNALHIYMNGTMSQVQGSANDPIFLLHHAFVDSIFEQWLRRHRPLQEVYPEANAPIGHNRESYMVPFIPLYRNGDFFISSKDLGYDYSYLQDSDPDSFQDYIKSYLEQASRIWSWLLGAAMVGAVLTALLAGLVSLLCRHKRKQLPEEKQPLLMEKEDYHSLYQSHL
Protocol: In further experiments, the effect of LCAME and LCA was investigated on extracts from HBL human melanoma cells expressing tyrosinase, and the inhibition of DO activity was evaluated. DO activity was determined according to Winder and Harris with some minor modifications: cell extracts were incubated with 3-methyl-2-benzothiazolinone hydrazone (MBTH) and absorbance at 490 nm was measured every 10 min for 1 h.
Cells were solubilized in 1% Igepal, 1% phenylmethylsulfonyl fluoride, 50 mM phosphate buffer (pH 6.8) and centrifuged at 2000 rpm for 5 min.
DO activity determinations were performed according to Winder and Harris with minor modifications. Briefly, cell extracts (usually 50–100 µg protein/assay) were incubated with 5 mM MBTH and 2.5 mM L-DOPA in 50 mM phosphate buffer pH 6.8 in the presence of the indicated concentrations of the compound of choice in a 96-wells plate. DO activity was measured spectrophotometrically in a microplate reader every ten minutes for one hour and was expressed as the slopes calculated with the GraphPad Prism 7 software (Linear Regression, San Diego, CA, USA).
For the analysis of kinetic parameters, the assays were run as above, using different concentrations of L-DOPA (from 0.1 to 2.0 mM) and of the inhibitor (0, 10 and 25 μM) to build the Lineweaver–Burk plot.

mushroom tyrosinase [3] = system: mushroom tyrosinase; design: method as in PMID 31105178; conditions: cited from earlier work; remark: listed apart in the source
HBL cells [4] = assay: MTT viability assay; assay type: cell-based, human; conditions: 24 h; for cytotoxicity (MTT): 25 or 50 μM
Protocol: (§1) The effect of the inhibitors on cell viability was evaluated by phase contrast microscopy and by means of the 3-(4,5-dimethyl-2-thiazolyl)-2,5-diphenyl-2H-tetrazolium bromide (MTT) assay. HBL cells were treated with the compounds (25 or 50 μM) for 24 h. At the end of the incubation period, phase contrast images were taken and the MTT assay was performed to test the cytotoxicity of each compound.
(§2) Figure 4 Effect of caffeic acid derivatives on the viability of HBL cells. Cells were incubated for 24 h with the inhibitors at 25 or 50 µM. (a) Phase contrast microscopy images. Representative images are shown (n = 8) Bar size: 50 μm. (b) MTT viability assay. Cells were grown in 96-well plates to ~80% confluence in the presence or absence of the indicated compounds. After 24 h, MTT was added (1 mg/mL final concentration) and maintained in the culture media for 4 h. Cells were PBS-washed twice and solubilized in DMSO. Absorbance at 562 nm was measured and represented as a percentage of the control value. The mean ± SEM of 8 independent experiments is shown. **** p < 0.0001.
Cell viability was measured by the MTT assay. HBL cells were seeded into the wells of a 96-wells plate at a density of 10,000 cells in 200 μL cell culture media. The seeded cells were incubated for 18 h at 37 °C, then treated with the compounds (25 or 50 μM) for 24 h or left untreated. At the end of the incubation period, images were taken and the MTT assay was performed to test the cytotoxicity of the different caffeic acid derivatives.

mushroom tyrosinase [5] = biological target: mushroom tyrosinase; design: method as in PMID 31105178; conditions: mushroom enzyme; read-out: IC50 (TH Activity); cited from earlier work
mushroom tyrosinase [6] = assay: Consumption of inhibitor by mushroom tyrosinase (substrate test, HPLC); assay type: biochemical; conditions: 100 μM, 10 min
Protocol: Some tyrosinase inhibitors are also substrates of the enzyme and this is a critical issue because their oxidation can lead to the formation of highly reactive, cytotoxic o-quinones. To rule out this possibility, either LCAME or CAME at 100 μM were exposed to mushroom tyrosinase, in the absence of L-DOPA, and after 10 min, the reaction mixtures were analyzed by HPLC. […] HPLC analyses for determination of the consumption of CAME and LCAME in the presence of mushroom tyrosinase were performed on a Agilent 1100 binary pump instrument equipped with a UV-visible detector using an octadecylsilane-coated column, 250 mm × 4.6 mm, 5 μm particle size (Phenomenex Sphereclone ODS, Bologna, Italy) at 0.7 mL/min, using the following gradient: 0.1% formic acid (eluant a)/ methanol (eluant b): 40% b, 0–10 min; from 40 to 80% b, 47.5–52.5 min; from 80 to 40% b, 52.5–57.5 min. Detection wavelength was set at 280 nm. Stock methanolic solutions of LCAME or CAME, ranging in concentration from 0.02 to 20 mM concentration were prepared dissolving a proper amount of the compound of interest in methanol. 100 μL of these solutions were added to 2 mL of 50 mM phosphate buffer at pH 6.8 (final concentrations range: 0.001–1 mM), in the presence or in the absence of 20 U/mL mushroom tyrosinase. After 10 min incubation at room temperature, 20 μL of a 100 mM solution of L-DOPA or L-tyrosine in 0.6 M HCl, were added (final concentration: 1 mM). Spectrophotometric analysis was performed by measuring the absorbance at 475 nm for 10 min at 2 min intervals. In control experiments, the reaction was run in the absence of LCAME. When required, the experiment was performed as above but adding L-DOP A soon after the addition of LCAME ([…]). In separate experiments, the assay was run as above with LCAME or CAME at 100 μM, in the presence or absence of L-DOPA, and after 10 min the mixture was analyzed by HPLC.

HBL cells [7] = assay: Phase contrast microscopy of cell morphology; assay type: cell-based, human; conditions: 50 μM, 24 h
Protocol: as §1, §2
Cell viability was measured by the MTT assay. HBL cells were seeded into the wells of a 96-wells plate at a density of 10,000 cells in 200 μL cell culture media. The seeded cells were incubated for 18 h at 37 °C, then treated with the compounds (25 or 50 μM) for 24 h or left untreated. […]

mushroom tyrosinase [8] = assay: Mushroom tyrosinase TH activity inhibition (dopachrome formation at 475 nm, L-tyrosine substrate); assay type: biochemical; conditions: 10 min pre-incubation, L-tyrosine 1 mM, tyrosinase 20 U/mL, pH 6.8
Protocol: The inhibition properties of LCAME were preliminarily investigated on mushroom tyrosinase by spectrophotometric monitoring of dopachrome formation, a method which is routinely used for evaluation of the activity of potential tyrosinase inhibitors. L-DOPA was used as the substrate to test DO activity while L-tyrosine was used to test TH activity. LCAME was incubated in 50 mM phosphate buffer in the presence of mushroom tyrosinase (20 U/mL) at room temperature. After 10 min, L-DOPA or L-tyrosine (1 mM final concentration) were added and the absorbance at 475 nm was measured at different times over 10 min. For comparative purposes the effects of CAME were evaluated as well. Stock methanolic solutions of LCAME or CAME, ranging in concentration from 0.02 to 20 mM concentration were prepared dissolving a proper amount of the compound of interest in methanol. 100 μL of these solutions were added to 2 mL of 50 mM phosphate buffer at pH 6.8 (final concentrations range: 0.001–1 mM), in the presence or in the absence of 20 U/mL mushroom tyrosinase. […] Spectrophotometric analysis was performed by measuring the absorbance at 475 nm for 10 min at 2 min intervals. […] In separate experiments, the assay was run as above with LCAME or CAME at 100 μM, in the presence or absence of L-DOPA, and after 10 min the mixture was analyzed by HPLC.

mushroom tyrosinase [9] = assay: Mushroom tyrosinase DO activity inhibition (dopachrome formation at 475 nm, L-DOPA substrate); assay type: biochemical; conditions: 10 min pre-incubation, L-DOPA 1 mM, tyrosinase 20 U/mL, pH 6.8
Protocol: The inhibition properties of LCAME were preliminarily investigated on mushroom tyrosinase by spectrophotometric monitoring of dopachrome formation, a method which is routinely used for evaluation of the activity of potential tyrosinase inhibitors. L-DOPA was used as the substrate to test DO activity while L-tyrosine was used to test TH activity. LCAME was incubated in 50 mM phosphate buffer in the presence of mushroom tyrosinase (20 U/mL) at room temperature. After 10 min, L-DOPA or L-tyrosine (1 mM final concentration) were added and the absorbance at 475 nm was measured at different times over 10 min. For comparative purposes the effects of CAME were evaluated as well. Stock methanolic solutions of LCAME or CAME, ranging in concentration from 0.02 to 20 mM concentration were prepared dissolving a proper amount of the compound of interest in methanol. 100 μL of these solutions were added to 2 mL of 50 mM phosphate buffer at pH 6.8 (final concentrations range: 0.001–1 mM), in the presence or in the absence of 20 U/mL mushroom tyrosinase. After 10 min incubation at room temperature, 20 μL of a 100 mM solution of L-DOPA or L-tyrosine in 0.6 M HCl, were added (final concentration: 1 mM). Spectrophotometric analysis was performed by measuring the absorbance at 475 nm for 10 min at 2 min intervals. In control experiments, the reaction was run in the absence of LCAME. When required, the experiment was performed as above but adding L-DOP A soon after the addition of LCAME ([…]). In separate experiments, the assay was run as above with LCAME or CAME at 100 μM, in the presence or absence of L-DOPA, and after 10 min the mixture was analyzed by HPLC.

tyrosinase = assay: Tyrosinase expression by Western blot (αPEP7), with or without NDP-MSH; assay type: cell-based, human
Protocol: Control HBL cells or cells grown in the presence of CAME (25 µM) or LCAME (25 or 50 µM) were stimulated for 48 h with a potent analogue of αMSH ([Nle^4,D-Phe^7]-α-MSH (NDP-MSH), 10^−7 M). Use of the 50 μM concentration of CAME was avoided since this concentration was somewhat cytotoxic as shown above. Expression of tyrosinase was then evaluated by Western blot using a specific antibody directed against tyrosinase (αPEP7). […] However, other mechanisms such as interference with activation and/or functional coupling of the melanocortin 1 receptor responsible for αMSH actions cannot be ruled out and a complete study of these possibilities is beyond the scope of this work. Accordingly, interference of LCAME with MITF expression or activity remains speculative at this stage. In any case, this preliminary observation deserves confirmation using cultured normal human melanocytes and further mechanistic analysis, as it may further support the potential use of LCAME as a skin depigmenting agent. Indeed, LCAME may act at two different levels, on one hand by inhibiting preexisting tyrosinase by a competitive mechanism, and on the other hand by interfering with αMSH-dependent induction of tyrosinase expression.
Figure 5 Effect on tyrosinase expression of CAME (25 µM) and LCAME (25 and 50 µM). HBL melanoma cells were incubated with or without the indicated compounds and stimulated with NDP-MSH (10^−7 M). After 48 h of treatment, tyrosinase levels were compared by Western blotting, performed as described in Materials and Methods. […] For each experimental condition, the fold-increase of tyrosinase abundance upon NDP-MSH treatment relative to the corresponding control was determined by densitometric analysis (ImageJ software) and is shown below the figure.
After protein separation by SDS-PAGE, they were transferred from the gel to the membrane and immunochemical detection with anti-PEP7 was performed as previously described. Briefly, the filters were blocked for 1 h in 2% bovine serum albumin in 1% Tween 20 PBS and incubated overnight at 4 °C with primary antibodies (1:4000 dilution). The filters were washed and further incubated with peroxidase-labeled mouse anti-rabbit IgG (1:5000 dilution). Staining and detection were done with ECL Plus Western Blotting Detection System chemiluminescent substrate (Thermo Fisher Scientific, Waltham, MA, USA). Images were acquired in a Fusion Solo.6S system (Vilber-Lourmat, Marne La Vallée, France). Signal intensities were estimated with ImageJ (National Institutes of Health, Bethesda, […], USA) in independent blots, and normalized with the corresponding loading controls (obtained by staining the membranes with an anti-ERK2 antibody).

Structure (SMILES)	substrate of tyrosinase (mushroom tyrosinase [1])	effect on TH activity of human tyrosinase (human tyrosinase)	IC50 ([2]; DO activity, L-DOPA 2.5 mM, read-out: IC50 (Mean ± SEM))	inhibitory effect on DO activity ([2]; fixed concentration of 25 μM)	nature of tyrosinase inhibition (Lineweaver–Burk plots) (mushroom tyrosinase [3])	IC50 (mushroom tyrosinase [3]; mushroom enzyme, read-out: IC50 (DO Activity)) [µM]	cytotoxicity (MTT) (HBL cells [4])	IC50 (mushroom tyrosinase [5]) [µM]	consumption of the inhibitor (mushroom tyrosinase [6]; absence of L-DOPA)	consumption of the inhibitor (mushroom tyrosinase [6]; presence of L-DOPA)	cell morphology (phase contrast) (HBL cells [7])	IC50 (mushroom tyrosinase [8]) [µM]	IC50 (mushroom tyrosinase [9]) [µM]	NDP-MSH-mediated induction of tyrosinase expression (tyrosinase; 25 µM, NDP-MSH 10^−7 M, 48 h)	basal tyrosinase expression (tyrosinase; HBL cells, CAME 25 µM or LCAME 25 or 50 µM, Western blot)	cell viability (MTT) (HBL cells [4]; 50 μM)	effect on tyrosinase activity (mushroom tyrosinase [3]; same conditions as LCA)
O=C(O)/C=C/c1ccc(O)c(O)c1SCCC(S)CCCCC(=O)O (stereo not drawn) [LCA, 2-S-lipoylcaffeic acid]	not to be a substrate of tyrosinase	much smaller	76 µM and 76.2 µM	significant inhibitory effect	mixed type mechanism	3.22 ± 0.02	not cytotoxic	2 ± 0.1									
COC(=O)/C=C/c1ccc(O)c(O)c1 [CAME, caffeic acid methyl ester, reference compound]									almost complete	extremely low	became rounded	79 ± 7	155 ± 7	similarly induced	No significant changes	reduced cell viability	
O=C(O)/C=C/c1ccc(O)c(O)c1 [CA, caffeic acid]							not cytotoxic										did not show any effect
